For the assay, the target named is Protein-arginine deiminase type-4 (Homo sapiens) (UniProt Q9UM07). Kind of assay: PubChem AID 651867. The settings on record: recombinant PAD4, BAEE citrulline colorimetric, time-dependent inactivation; at 10 µM; hits give high values.

SMILES strings stand for the structures.

The term kinact/KI denotes the second-order rate constant of inactivation.

Chain of Protein-arginine deiminase type-4 (Homo sapiens) (Q9UM07 whole entry, looked up): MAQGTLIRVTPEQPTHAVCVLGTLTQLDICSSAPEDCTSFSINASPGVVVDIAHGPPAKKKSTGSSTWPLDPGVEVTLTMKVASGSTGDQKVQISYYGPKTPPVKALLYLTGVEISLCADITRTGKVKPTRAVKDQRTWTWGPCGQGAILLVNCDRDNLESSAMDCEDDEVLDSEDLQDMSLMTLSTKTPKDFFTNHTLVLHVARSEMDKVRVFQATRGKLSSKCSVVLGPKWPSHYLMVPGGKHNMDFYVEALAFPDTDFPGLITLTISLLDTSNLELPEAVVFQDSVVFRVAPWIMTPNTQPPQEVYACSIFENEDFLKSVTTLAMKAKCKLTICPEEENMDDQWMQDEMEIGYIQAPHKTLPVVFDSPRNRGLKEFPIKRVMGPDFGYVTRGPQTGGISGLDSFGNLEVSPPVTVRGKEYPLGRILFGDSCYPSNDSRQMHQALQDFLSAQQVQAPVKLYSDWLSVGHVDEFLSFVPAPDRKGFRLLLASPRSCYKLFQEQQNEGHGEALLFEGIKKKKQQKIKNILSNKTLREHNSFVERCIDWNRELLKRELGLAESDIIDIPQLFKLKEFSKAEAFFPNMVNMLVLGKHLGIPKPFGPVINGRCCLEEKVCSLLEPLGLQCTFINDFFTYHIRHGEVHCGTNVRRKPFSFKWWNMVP

Turning to `NC1=CC(=O)c2ccc(-c3cccc(C(=O)O)n3)nc2C1=O`, the kinact/KI was 5300 M⁻¹ min⁻¹.

Source of the values: PubChem BioAssay AID651867 (The Scripps Research Institute Molecular Screening Center, 2012).
